Measured values taken from article PMC4890880 (ACS infectious diseases, 2016).

System: HepG2-A16-CD81EGFP cells
Conditions: read-out: Tox_IC50; sheet 2nd round; HepG2 cytotoxicity

SMILES | IC50
CN(C)C(=O)c1ccc(-c2ccc([C@@H]3[C@H]4CN(C(=O)CC5CC5)CC(=O)N4[C@H]3CO)cc2)cc1 [BRD-K27481961-001-01-1] | > 10 µM

Same assay, conditions: sheet 2nd round; maximal inhibition in dose response

SMILES | Tox_max_inhibition (%)
CN(C)C(=O)c1ccc(-c2ccc([C@@H]3[C@H]4CN(C(=O)CC5CC5)CC(=O)N4[C@H]3CO)cc2)cc1 [BRD-K27481961-001-01-1] | 6%

System: Plasmodium berghei (Pb-Luc) exoerythrocytic-stage parasites
Conditions: first series of dose-response columns; concentration 10; fraction of control

SMILES | normalized signal at concentration 10
CN(C)C(=O)c1ccc(-c2ccc([C@@H]3[C@H]4CN(C(=O)CC5CC5)CC(=O)N4[C@H]3CO)cc2)cc1 [BRD-K27481961-001-01-1] | 1.04

Same assay, conditions: first series; concentration 0.000508053; fraction of control

SMILES | normalized signal at concentration 0.000508053
CN(C)C(=O)c1ccc(-c2ccc([C@@H]3[C@H]4CN(C(=O)CC5CC5)CC(=O)N4[C@H]3CO)cc2)cc1 [BRD-K27481961-001-01-1] | 0.88

Same assay, conditions: first series; concentration 0.00152416; fraction of control

SMILES | normalized signal at concentration 0.00152416
CN(C)C(=O)c1ccc(-c2ccc([C@@H]3[C@H]4CN(C(=O)CC5CC5)CC(=O)N4[C@H]3CO)cc2)cc1 [BRD-K27481961-001-01-1] | 0.98

Same assay, conditions: first series; concentration 0.00457247; fraction of control

SMILES | normalized signal at concentration 0.00457247
CN(C)C(=O)c1ccc(-c2ccc([C@@H]3[C@H]4CN(C(=O)CC5CC5)CC(=O)N4[C@H]3CO)cc2)cc1 [BRD-K27481961-001-01-1] | 1.01

Same assay, conditions: first series; concentration 0.0137174; fraction of control

SMILES | normalized signal at concentration 0.0137174
CN(C)C(=O)c1ccc(-c2ccc([C@@H]3[C@H]4CN(C(=O)CC5CC5)CC(=O)N4[C@H]3CO)cc2)cc1 [BRD-K27481961-001-01-1] | 0.77

Same assay, conditions: first series; concentration 0.0411523; fraction of control

SMILES | normalized signal at concentration 0.0411523
CN(C)C(=O)c1ccc(-c2ccc([C@@H]3[C@H]4CN(C(=O)CC5CC5)CC(=O)N4[C@H]3CO)cc2)cc1 [BRD-K27481961-001-01-1] | 0.91

Same assay, conditions: first series; concentration 0.123457; fraction of control

SMILES | normalized signal at concentration 0.123457
CN(C)C(=O)c1ccc(-c2ccc([C@@H]3[C@H]4CN(C(=O)CC5CC5)CC(=O)N4[C@H]3CO)cc2)cc1 [BRD-K27481961-001-01-1] | 0.95

Same assay, conditions: first series; concentration 0.37037; fraction of control

SMILES | normalized signal at concentration 0.37037
CN(C)C(=O)c1ccc(-c2ccc([C@@H]3[C@H]4CN(C(=O)CC5CC5)CC(=O)N4[C@H]3CO)cc2)cc1 [BRD-K27481961-001-01-1] | 0.98

Same assay, conditions: first series; concentration 1.11111; fraction of control

SMILES | normalized signal at concentration 1.11111
CN(C)C(=O)c1ccc(-c2ccc([C@@H]3[C@H]4CN(C(=O)CC5CC5)CC(=O)N4[C@H]3CO)cc2)cc1 [BRD-K27481961-001-01-1] | 1.00

Same assay, conditions: first series; concentration 3.33333; fraction of control

SMILES | normalized signal at concentration 3.33333
CN(C)C(=O)c1ccc(-c2ccc([C@@H]3[C@H]4CN(C(=O)CC5CC5)CC(=O)N4[C@H]3CO)cc2)cc1 [BRD-K27481961-001-01-1] | 0.94

Same assay, conditions: read-out: PbLuc_IC50; sheet 2nd round; Broad compounds, dose response

SMILES | IC50
CN(C)C(=O)c1ccc(-c2ccc([C@@H]3[C@H]4CN(C(=O)CC5CC5)CC(=O)N4[C@H]3CO)cc2)cc1 [BRD-K27481961-001-01-1] | > 10 µM

Same assay, conditions: second series of dose-response columns; concentration 10; fraction of control

SMILES | normalized signal at concentration 10
CN(C)C(=O)c1ccc(-c2ccc([C@@H]3[C@H]4CN(C(=O)CC5CC5)CC(=O)N4[C@H]3CO)cc2)cc1 [BRD-K27481961-001-01-1] | 0.89

Same assay, conditions: second series; concentration 0.000508053; fraction of control

SMILES | normalized signal at concentration 0.000508053
CN(C)C(=O)c1ccc(-c2ccc([C@@H]3[C@H]4CN(C(=O)CC5CC5)CC(=O)N4[C@H]3CO)cc2)cc1 [BRD-K27481961-001-01-1] | 1.05

Same assay, conditions: second series; concentration 0.00152416; fraction of control

SMILES | normalized signal at concentration 0.00152416
CN(C)C(=O)c1ccc(-c2ccc([C@@H]3[C@H]4CN(C(=O)CC5CC5)CC(=O)N4[C@H]3CO)cc2)cc1 [BRD-K27481961-001-01-1] | 1.04

Same assay, conditions: second series; concentration 0.00457247; fraction of control

SMILES | normalized signal at concentration 0.00457247
CN(C)C(=O)c1ccc(-c2ccc([C@@H]3[C@H]4CN(C(=O)CC5CC5)CC(=O)N4[C@H]3CO)cc2)cc1 [BRD-K27481961-001-01-1] | 0.89

Same assay, conditions: second series; concentration 0.0137174; fraction of control

SMILES | normalized signal at concentration 0.0137174
CN(C)C(=O)c1ccc(-c2ccc([C@@H]3[C@H]4CN(C(=O)CC5CC5)CC(=O)N4[C@H]3CO)cc2)cc1 [BRD-K27481961-001-01-1] | 0.89

Same assay, conditions: second series; concentration 0.0411523; fraction of control

SMILES | normalized signal at concentration 0.0411523
CN(C)C(=O)c1ccc(-c2ccc([C@@H]3[C@H]4CN(C(=O)CC5CC5)CC(=O)N4[C@H]3CO)cc2)cc1 [BRD-K27481961-001-01-1] | 0.96

Same assay, conditions: second series; concentration 0.123457; fraction of control

SMILES | normalized signal at concentration 0.123457
CN(C)C(=O)c1ccc(-c2ccc([C@@H]3[C@H]4CN(C(=O)CC5CC5)CC(=O)N4[C@H]3CO)cc2)cc1 [BRD-K27481961-001-01-1] | 1.12

Same assay, conditions: second series; concentration 0.37037; fraction of control

SMILES | normalized signal at concentration 0.37037
CN(C)C(=O)c1ccc(-c2ccc([C@@H]3[C@H]4CN(C(=O)CC5CC5)CC(=O)N4[C@H]3CO)cc2)cc1 [BRD-K27481961-001-01-1] | 1.12

Same assay, conditions: second series; concentration 1.11111; fraction of control

SMILES | normalized signal at concentration 1.11111
CN(C)C(=O)c1ccc(-c2ccc([C@@H]3[C@H]4CN(C(=O)CC5CC5)CC(=O)N4[C@H]3CO)cc2)cc1 [BRD-K27481961-001-01-1] | 0.98

Same assay, conditions: second series; concentration 3.33333; fraction of control

SMILES | normalized signal at concentration 3.33333
CN(C)C(=O)c1ccc(-c2ccc([C@@H]3[C@H]4CN(C(=O)CC5CC5)CC(=O)N4[C@H]3CO)cc2)cc1 [BRD-K27481961-001-01-1] | 1.20

Same assay, conditions: sheet 2nd round; maximal inhibition in dose response

SMILES | PbLuc_max_inhibition (%)
CN(C)C(=O)c1ccc(-c2ccc([C@@H]3[C@H]4CN(C(=O)CC5CC5)CC(=O)N4[C@H]3CO)cc2)cc1 [BRD-K27481961-001-01-1] | 23%
